# In BindingDB's records for doi:10.1021/jm058046w (Martin-Luther-University Halle-Wittenberg, 2006):
# Experiment: Cytotoxicity against mouse MDR1 transfected L5178YvMDR cell line
row,Compound,IC50 [µM]
1,"OC[C@]12C3C4C1N(Cc1ccccc1)C1C(C(N3Cc3ccccc3)[C@]1(CO)[C@H]4c1ccccc1)[C@H]2c1ccccc1 [3,9-dibenzyl-1,7-dihydroxymethyl-6,12-diphenyl-3,9-diazahexacyclo[6.4.0.0(2.7)0(4.11)0(5.10)]dodecane]",13.3
2,"CN1C2C3C4N(C)C5C(C1[C@]5(CO)[C@H]3c1ccccc1)[C@@H](c1ccccc1)[C@@]24CO [1,7-dihydroxymethyl-3,9-dimethyl-6,12-diphenyl-3,9-diazahexacyclo[6.4.0.0 2.7.0 4.11.0. 5.10]dodecane]",7.5
3,"CC(C)(C)OC(=O)N1C2C3C4N(C(=O)OC(C)(C)C)C5C(C1[C@]5(CO)[C@H]3c1ccccc1)[C@@H](c1ccccc1)[C@@]24CO [3,9-di(tert.)butoxycarbonyl-1,7-dihydroxymethyl-6,12-diphenyl-3,9-diazahexacyclo[6.4.0.0(2.7)0(4.11)0(5.10)]dodecane]",3.2
4,"O=C(Oc1ccccc1)N1C2C3C4N(C(=O)Oc5ccccc5)C5C(C1[C@]5(CO)[C@H]3c1ccccc1)[C@@H](c1ccccc1)[C@@]24CO [1,7-dihydroxymethyl-6,12-diphenyl-3,9-diphenoxycarbonyl-3,9-diazahexacyclo[6.4.0.0(2.7)0(4.11)0(5.10)]dodecane]",21
